What was measured:
[1] = tested on: HSV; conditions: continuous suppressive administration, early intervention; Corey et al. 2004; cited from earlier work
[2] = tested on: Splenic CD4 T cell responses (SIV-Gag DD13 epitope); assay: Splenic CD4 T cell responses by ICS after SIV-Gag protein with or without GLA-SE (Example 8); assay type: in vivo, C57BL/6 mice; conditions: 5 μg SIV-Gag protein + 5 μg GLA-SE vs SE alone or PBS, i.m. d0/d21, day 5 post-boost
Experimental: C57BL/6 mice (4 per group) were immunized intramuscularly via a prime/boost immunization regimen (d0 prime/d21 boost) with 5 μg of recombinant SIV-Gag protein+5 μg of GLA-SE, SE alone, or PBS. Splenic CD4 T cell responses were measured on day 5 post-boost by ICS for IFN-γ, TNF-α, and IL-2 after ex vivo re-stimulation with SIV-Gag CD4 T cell epitope containing peptide DD13 (amino acids 299-311 of SIV-GAG; DRFYKSLRAEQTD; SEQ ID NO: 45)

Row | SMILES | reduction of HSV transmission [1] | Th1 CD4 T cell response after immunization with SIV-Gag recombinant protein [2]
1 | CC(C)[C@H](N)C(=O)OCCOCn1cnc2c(=O)[nH]c(N)nc21 [Valacyclovir] | less than 50% | 
2 | CCCCCCCCCCCCCC(=O)O[C@H](CCCCCCCCCCC)CC(=O)O[C@@H]1[C@@H](NC(=O)C[C@H](CCCCCCCCCCC)OC(=O)CCCCCCCCCCCCC)[C@H](OC[C@H]2O[C@H](O)[C@H](NC(=O)C[C@H](O)CCCCCCCCCCC)[C@@H](OC(=O)C[C@H](O)CCCCCCCCCCC)[C@@H]2O)O[C@H](CO)[C@H]1OP(=O)(O)O [GLA, glucopyranosyl lipid A] |  | required for a robust Th1 CD4 T cell response

Reference: US9044420B2, “Immunogenic compositions and methods of using the compositions for inducing humoral and cellular immune responses” (IMMUNE DESIGN CORP., priority 2011, dated 2015)
